Data from the supplement of paper PMC10307832.

Experiments:
Test in all cases: relative viability (nuclei count vs DMSO), 5 days (fraction); higher = more cells survive
[1] = compound: O=C(O)c1ccc2c(c1)nc(Nc1cccc(Cl)c1)c1ccncc12 [Silmitasertib] + Cc1nc(NC(=O)N2CCC[C@H]2C(N)=O)sc1-c1ccnc(C(C)(C)C(F)(F)F)c1 [Alpelisib] (partner 2 µM)
Summary of the method: (§1)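 Lung cancer cell lines were pin-tool dosed in 1536-well plates on the day after seeding, with either a lone drug or a fixed anchor-drug dose plus five library-drug doses (not always all listed) in √10 steps. Nuclei were counted on 4× images after 5 days. Relative viability is the ratio of treated-well to vehicle-well nuclei counts, with each value a median of duplicate plates.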

[2] = compound: O=C(O)c1ccc2c(c1)nc(Nc1cccc(Cl)c1)c1ccncc12 [Silmitasertib] + C[C@@H](Oc1cc(-c2cnn(C3CCNCC3)c2)cnc1N)c1c(Cl)ccc(F)c1Cl [Crizotinib] (partner 1 µM)
Summary of the method: as §1

[3] = compound: O=C(O)c1ccc2c(c1)nc(Nc1cccc(Cl)c1)c1ccncc12 [Silmitasertib] + COc1cc2c(Oc3ccc(NC(=O)C4(C(=O)Nc5ccc(F)cc5)CC4)cc3F)ccnc2cc1OCCCN1CCOCC1 [Foretinib] (partner 0.25 µM)
Summary of the method: as §1

[4] = compound: O=C(O)c1ccc2c(c1)nc(Nc1cccc(Cl)c1)c1ccncc12 [Silmitasertib] + N=C(N)NC(=N)NCCc1ccccc1 [Phenformin] (partner 250 µM)
Summary of the method: as §1

Silmitasertib + OSI-027 = compound: O=C(O)c1ccc2c(c1)nc(Nc1cccc(Cl)c1)c1ccncc12 [Silmitasertib] + COc1cccc2cc(-c3nc([C@H]4CC[C@H](C(=O)O)CC4)n4ncnc(N)c34)[nH]c12 [OSI-027] (partner 0.5 µM)
Summary of the method: as §1

Cell Line	relative viability ([1]; first compound 0.04 µM)	relative viability ([1]; first compound 1.265 µM)	relative viability ([1]; first compound 4 µM)	relative viability ([2]; first compound 0.04 µM)	relative viability ([2]; first compound 1.265 µM)	relative viability ([2]; first compound 4 µM)	relative viability ([3]; first compound 0.04 µM)	relative viability ([3]; first compound 1.265 µM)	relative viability ([3]; first compound 4 µM)	relative viability ([4]; first compound 0.04 µM)	relative viability ([4]; first compound 1.265 µM)	relative viability ([4]; first compound 4 µM)	relative viability (Silmitasertib + OSI-027; first compound 0.04 µM)	relative viability (Silmitasertib + OSI-027; first compound 1.265 µM)	relative viability (Silmitasertib + OSI-027; first compound 4 µM)	relative viability ([1]; first compound 0.4 µM)	relative viability ([2]; first compound 0.4 µM)	relative viability ([3]; first compound 0.4 µM)	relative viability ([4]; first compound 0.4 µM)	relative viability (Silmitasertib + OSI-027; first compound 0.4 µM)
LXF-289	1.06	1.09	1.07	0.794	0.842	0.825	0.983	1.04	1.05	0.53	0.58	0.382	0.78	0.805	0.532	–	–	–	–	–
NCI-H23	0.762	0.67	0.547	0.51	0.384	0.362	0.97	0.65	0.735	0.639	0.675	0.403	0.706	0.423	0.206	–	–	–	–	–
NCI-H322M	0.763	0.559	0.465	0.878	0.511	0.281	1.01	0.623	0.544	0.783	0.603	0.384	0.619	0.383	0.372	0.71	0.662	0.836	0.761	0.467
NCI-H358	0.916	0.65	0.48	0.616	0.493	0.407	0.876	0.653	0.474	0.371	0.325	0.225	1.09	0.519	0.376	0.786	0.47	0.573	0.272	0.349
NCI-H522	–	–	–	–	–	–	–	–	–	0.669	0.626	0.678	0.739	0.684	0.67	–	–	–	0.554	0.762
NCI-H1395	1.15	1.03	0.965	–	–	–	0.894	0.97	0.972	0.495	0.49	0.373	0.731	0.591	0.477	0.728	–	0.805	0.436	0.552
NCI-H1650	–	–	–	1.04	1	0.68	1.47	0.902	0.653	0.49	0.283	0.151	0.99	0.496	0.203	–	1	1.34	0.412	0.511
NCI-H1703	0.334	0.392	0.452	0.954	0.787	0.392	0.348	0.359	0.415	–	–	–	–	–	–	0.312	0.596	0.375	–	–
NCI-H1792	0.671	0.683	0.727	0.948	0.735	0.882	–	–	–	0.29	0.327	0.103	0.815	0.782	0.699	0.595	0.764	–	0.24	0.675
NCI-H1793	0.694	0.656	0.564	–	–	–	0.757	0.427	0.607	0.396	0.346	0.373	0.329	0.27	0.217	0.619	–	0.62	0.29	0.192
NCI-H2342	–	–	–	–	–	–	1.19	0.889	1.14	0.614	0.465	0.493	0.762	0.504	0.539	–	–	0.981	0.713	0.606
